Measured values as given in BindingDB's records for doi:10.1016/j.bmcl.2009.03.149 (Gsk, 2009).

Key:
Test in all cases: Enzyme Inhibition Assay
Cathepsin D = Cathepsin D (Homo sapiens, UniProt P07339)
Beta-secretase 2 = target: T1, Beta-secretase 2 (Homo sapiens, UniProt Q9Y5Z0)
T1 sequence (Q9Y5Z0 whole entry): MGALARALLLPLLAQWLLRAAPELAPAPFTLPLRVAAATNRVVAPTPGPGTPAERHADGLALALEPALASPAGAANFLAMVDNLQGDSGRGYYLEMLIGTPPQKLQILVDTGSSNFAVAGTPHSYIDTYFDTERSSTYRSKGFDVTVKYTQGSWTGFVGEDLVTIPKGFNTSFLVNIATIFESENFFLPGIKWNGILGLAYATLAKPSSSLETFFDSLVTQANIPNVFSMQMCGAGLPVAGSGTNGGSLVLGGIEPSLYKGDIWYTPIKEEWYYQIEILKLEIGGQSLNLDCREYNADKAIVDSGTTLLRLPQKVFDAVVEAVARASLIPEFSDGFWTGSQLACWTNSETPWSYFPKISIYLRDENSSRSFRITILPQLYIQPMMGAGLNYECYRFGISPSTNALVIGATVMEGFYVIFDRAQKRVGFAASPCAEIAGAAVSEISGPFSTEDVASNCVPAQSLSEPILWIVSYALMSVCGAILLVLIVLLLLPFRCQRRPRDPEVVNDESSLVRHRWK

Beta-secretase 1 = Beta-secretase 1 (Homo sapiens, UniProt P56817); details: pH 4.5; 22 °C
Beta-secretase 1, sequence (P56817 whole entry): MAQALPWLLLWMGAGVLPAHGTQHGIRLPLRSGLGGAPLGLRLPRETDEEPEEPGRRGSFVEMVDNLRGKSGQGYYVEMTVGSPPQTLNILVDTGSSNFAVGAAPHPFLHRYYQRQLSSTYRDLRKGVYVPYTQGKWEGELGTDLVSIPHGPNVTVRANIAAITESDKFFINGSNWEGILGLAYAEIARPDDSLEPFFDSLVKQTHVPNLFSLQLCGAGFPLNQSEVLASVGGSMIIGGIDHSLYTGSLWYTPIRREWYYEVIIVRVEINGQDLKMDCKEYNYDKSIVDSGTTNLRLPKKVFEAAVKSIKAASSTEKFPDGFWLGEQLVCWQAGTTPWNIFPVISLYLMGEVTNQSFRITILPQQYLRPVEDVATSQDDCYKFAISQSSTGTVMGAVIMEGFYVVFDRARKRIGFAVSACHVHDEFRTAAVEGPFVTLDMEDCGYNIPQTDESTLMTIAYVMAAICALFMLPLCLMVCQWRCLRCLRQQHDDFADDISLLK

Cathepsin D, sequence (P07339 65-162 limits assumed): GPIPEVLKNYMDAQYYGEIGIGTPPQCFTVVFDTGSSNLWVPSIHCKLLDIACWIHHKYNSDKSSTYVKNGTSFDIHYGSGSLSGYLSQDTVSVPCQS
Cathepsin D, sequence (P07339 169-412 limits assumed): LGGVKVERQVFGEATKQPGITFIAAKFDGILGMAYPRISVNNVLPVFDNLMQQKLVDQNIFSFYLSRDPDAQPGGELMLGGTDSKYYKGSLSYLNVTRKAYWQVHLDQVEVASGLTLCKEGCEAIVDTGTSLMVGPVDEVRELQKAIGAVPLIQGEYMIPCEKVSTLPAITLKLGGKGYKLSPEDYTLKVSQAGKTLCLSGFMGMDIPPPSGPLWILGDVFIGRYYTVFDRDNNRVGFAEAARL

## CCc1cn2c3c(cc(C(=O)N[C@@H](Cc4ccccc4)[C@H](O)CNC4CCOCC4)cc13)N(C)S(=O)(=O)CC2 [BMCL193674 Compound 6]
Cathepsin D
  IC50: 6.61 µM
Beta-secretase 2
  IC50: 490 nM
Beta-secretase 1
  IC50: 15 nM

## CCc1cn2c3c(cc(C(=O)N[C@@H](Cc4ccccc4)[C@H](O)CNC4CCOCC4)cc13)OS(=O)(=O)CC2 [sulfone tricyclic analogue, 19]
Cathepsin D; pH 4.5, 22 °C
  IC50: 0.13 µM
Beta-secretase 2
  IC50: 450 nM
Beta-secretase 1
  IC50: 86 nM
